Common to all, as to type: functional
The test system of test [1] is HeLa. Kind of test: Cell cycle arrest in human HeLa cells assessed as accumulation at G1 phase at 0.25 uM after 48 hrs by flow cytometry.
Test [2] deals with HeLa. Put plainly: Cell cycle arrest in human HeLa cells assessed as accumulation at G1 phase at 1 uM after 48 hrs by flow cytometry.
The subject of test [3] is HeLa. Kind of test: Cell cycle arrest in human HeLa cells assessed as accumulation at S phase at 1 uM after 48 hrs by flow cytometry.
In test [4] the test system is HeLa. Put plainly: Cell cycle arrest in human HeLa cells assessed as accumulation at G2M phase at 1 uM after 48 hrs by flow cytometry.
Test [5] deals with HeLa. Kind of test: Cell cycle arrest in human HeLa cells assessed as accumulation at G2M phase at 0.25 uM after 48 hrs by flow cytometry.
Test [6] deals with HeLa. Kind of test: Cell cycle arrest in human HeLa cells assessed as accumulation at S phase at 0.25 uM after 48 hrs by flow cytometry.
For test [7], the system named is HeLa. Kind of test: Cell cycle arrest in human HeLa cells assessed as accumulation at sub-G1 phase at 0.25 uM after 48 hrs by flow cytometry.
For test [8], the system named is HeLa. Put plainly: Cell cycle arrest in human HeLa cells assessed as accumulation at sub-G1 phase at 0.5 uM after 48 hrs by flow cytometry.
Test [9] relates to HeLa. Kind of test: Cell cycle arrest in human HeLa cells assessed as accumulation at G1 phase at 0.5 uM after 48 hrs by flow cytometry.
The subject of test [10] is HeLa. Kind of test: Cell cycle arrest in human HeLa cells assessed as accumulation at sub-G1 phase at 1 uM after 48 hrs by flow cytometry.
For test [11], the system named is HeLa. Put plainly: Cell cycle arrest in human HeLa cells assessed as accumulation at G2M phase at 0.5 uM after 48 hrs by flow cytometry.
The test system of test [12] is HeLa. Kind of test: Cell cycle arrest in human HeLa cells assessed as accumulation at S phase at 0.5 uM after 48 hrs by flow cytometry.

In the case of `C=C(Br)C(=O)Nc1ccc(/C=C/C(=O)c2ccc(OC)cc2)cc1`, the Activity is 56.1% in [1]; 26.8% in test [2]; 25.6% in test [3]; 47.5% in test [4]; 13.1% in test [5]; 30.8% in test [6]. For the same compound, the Activity was 6.2% in [7]; 30.6% in test [8]; 37.5% in test [9]; 22.3% in test [10]; 44.6% in [11]; 15.3% in test [12].

The record behind these values is ChEMBL document CHEMBL1158543, “Symmetrical alpha-bromoacryloylamido diaryldienone derivatives as a novel series of antiproliferative agents. Design, synthesis and biological evaluation” (Bioorg Med Chem Lett, 2010).
